Assay results as given in PubChem BioAssay (NCI).
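Results reflect a 48-hour exposure of cells in 96-well plates to compound at five concentrations. TGI: concentration producing complete growth inhibition.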

Legend:
Test in all cases: NCI anticancer screen, dose series, 48 h
SNB-19 CNS = test system: SNB-19 CNS
SN12C renal = test system: SN12C renal
MALME-3M melanoma = test system: MALME-3M melanoma
CCRF-CEM leukemia = test system: CCRF-CEM leukemia
HCT-15 colon = test system: HCT-15 colon
OVCAR-5 ovarian = test system: OVCAR-5 ovarian
SW-620 colon = test system: SW-620 colon
UACC-62 melanoma = test system: UACC-62 melanoma
PC-3 prostate = test system: PC-3 prostate
SK-OV-3 ovarian = test system: SK-OV-3 ovarian
K-562 leukemia = test system: K-562 leukemia
MCF7 breast = test system: MCF7 breast
OVCAR-3 ovarian = test system: OVCAR-3 ovarian
786-0 renal = test system: 786-0 renal
SF-268 CNS = test system: SF-268 CNS
NCI/ADR-RES ovarian = test system: NCI/ADR-RES ovarian
HL-60(TB) leukemia = test system: HL-60(TB) leukemia
EKVX NSCLC = test system: EKVX NSCLC
SNB-75 CNS = test system: SNB-75 CNS
ACHN renal = test system: ACHN renal
IGROV1 ovarian = test system: IGROV1 ovarian
A549 NSCLC = test system: A549 NSCLC
HCC-2998 colon = test system: HCC-2998 colon
CAKI-1 renal = test system: CAKI-1 renal
LOX IMVI melanoma = test system: LOX IMVI melanoma
U251 CNS = test system: U251 CNS
TK-10 renal = test system: TK-10 renal
MOLT-4 leukemia = test system: MOLT-4 leukemia
COLO 205 colon = test system: COLO 205 colon
UACC-257 melanoma = test system: UACC-257 melanoma
RPMI-8226 leukemia = test system: RPMI-8226 leukemia
HCT-116 colon = test system: HCT-116 colon
KM12 colon = test system: KM12 colon
SR leukemia = test system: SR leukemia
DU-145 prostate = test system: DU-145 prostate
SF-539 CNS = test system: SF-539 CNS
RXF 393 renal = test system: RXF 393 renal
UO-31 renal = test system: UO-31 renal
SK-MEL-28 melanoma = test system: SK-MEL-28 melanoma
SF-295 CNS = test system: SF-295 CNS
NCI-H226 lung = test system: NCI-H226 lung
HT29 colon = test system: HT29 colon
M14 melanoma = test system: M14 melanoma
HOP-62 NSCLC = test system: HOP-62 NSCLC
OVCAR-8 ovarian = test system: OVCAR-8 ovarian
MDA-MB-231 breast = test system: MDA-MB-231 breast
T-47D breast = test system: T-47D breast
MDA-N = test system: MDA-N
NCI-H23 lung = test system: NCI-H23 lung
NCI-H522 lung = test system: NCI-H522 lung
SK-MEL-5 melanoma = test system: SK-MEL-5 melanoma
A498 renal = test system: A498 renal
SK-MEL-2 melanoma = test system: SK-MEL-2 melanoma
MDA-MB-435 = test system: MDA-MB-435
OVCAR-4 ovarian = test system: OVCAR-4 ovarian

Compound `CN1CN(c2ccccc2)C2(CCN(CCCC(=O)c3cccs3)CC2)C1=O` has a TGI (SNB-19 CNS) greater than 100 µM, a TGI (SN12C renal) greater than 100 µM and a TGI (MALME-3M melanoma) greater than 100 µM. For the same compound, the TGI (CCRF-CEM leukemia) was greater than 100 µM, the TGI (HCT-15 colon) was greater than 100 µM and the TGI (OVCAR-5 ovarian) was 87.4 µM. The TGI (SW-620 colon) was greater than 100 µM, the TGI (UACC-62 melanoma) was greater than 100 µM and the TGI (PC-3 prostate) was greater than 100 µM. It also gave a TGI (SK-OV-3 ovarian) greater than 100 µM, a TGI (K-562 leukemia) greater than 100 µM and a TGI (MCF7 breast) of 72.6 µM. It also gave a TGI (OVCAR-3 ovarian) greater than 100 µM, a TGI (786-0 renal) greater than 100 µM and a TGI (SF-268 CNS) greater than 100 µM. The TGI (NCI/ADR-RES ovarian) was greater than 100 µM, the TGI (HL-60(TB) leukemia) was greater than 100 µM and the TGI (EKVX NSCLC) was 80.9 µM. For the same compound, the TGI (SNB-75 CNS) was greater than 100 µM, the TGI (ACHN renal) was greater than 100 µM and the TGI (IGROV1 ovarian) was greater than 100 µM. The TGI (A549 NSCLC) was greater than 100 µM, the TGI (HCC-2998 colon) was 38.9 µM and the TGI (CAKI-1 renal) was greater than 100 µM. It also gave a TGI (LOX IMVI melanoma) greater than 100 µM, a TGI (U251 CNS) greater than 100 µM and a TGI (TK-10 renal) of 87.6 µM. For the same compound, the TGI (MOLT-4 leukemia) was greater than 100 µM, the TGI (COLO 205 colon) was 47.7 µM and the TGI (UACC-257 melanoma) was 90.6 µM. For the same compound, the TGI (RPMI-8226 leukemia) was greater than 100 µM, the TGI (HCT-116 colon) was greater than 100 µM and the TGI (KM12 colon) was greater than 100 µM. It also gave a TGI (SR leukemia) greater than 100 µM, a TGI (DU-145 prostate) greater than 100 µM and a TGI (SF-539 CNS) of 64 µM. The TGI (RXF 393 renal) was greater than 100 µM, the TGI (UO-31 renal) was greater than 100 µM and the TGI (SK-MEL-28 melanoma) was greater than 100 µM. The TGI (SF-295 CNS) was 85.6 µM, the TGI (NCI-H226 lung) was greater than 100 µM and the TGI (HT29 colon) was 73.6 µM. It also gave a TGI (M14 melanoma) greater than 100 µM, a TGI (HOP-62 NSCLC) of 37.4 µM and a TGI (OVCAR-8 ovarian) greater than 100 µM. It also gave a TGI (MDA-MB-231 breast) greater than 100 µM, a TGI (T-47D breast) greater than 100 µM and a TGI (MDA-N) greater than 100 µM. The TGI (NCI-H23 lung) was greater than 100 µM, the TGI (NCI-H522 lung) was greater than 100 µM and the TGI (SK-MEL-5 melanoma) was 65 µM.

For `CC1=CCS(=O)(=O)C1C(O)C1=C(C)CCCC1(C)C` (centres undefined), the TGI (SNB-19 CNS) was greater than 100 µM, the TGI (SN12C renal) was greater than 100 µM and the TGI (MALME-3M melanoma) was greater than 100 µM. The TGI (CCRF-CEM leukemia) was greater than 100 µM, the TGI (HCT-15 colon) was greater than 100 µM and the TGI (OVCAR-5 ovarian) was greater than 100 µM. The TGI (SW-620 colon) was greater than 100 µM, the TGI (UACC-62 melanoma) was greater than 100 µM and the TGI (PC-3 prostate) was greater than 100 µM. It also gave a TGI (SK-OV-3 ovarian) greater than 100 µM, a TGI (K-562 leukemia) greater than 100 µM and a TGI (MCF7 breast) greater than 100 µM. It also gave a TGI (OVCAR-3 ovarian) greater than 100 µM, a TGI (786-0 renal) greater than 100 µM and a TGI (A498 renal) greater than 100 µM. It also gave a TGI (NCI/ADR-RES ovarian) greater than 100 µM, a TGI (HL-60(TB) leukemia) greater than 100 µM and a TGI (EKVX NSCLC) greater than 100 µM. For the same compound, the TGI (SNB-75 CNS) was greater than 100 µM, the TGI (ACHN renal) was greater than 100 µM and the TGI (SK-MEL-2 melanoma) was greater than 100 µM. For the same compound, the TGI (IGROV1 ovarian) was greater than 100 µM, the TGI (A549 NSCLC) was greater than 100 µM and the TGI (MDA-MB-435) was greater than 100 µM. For the same compound, the TGI (HCC-2998 colon) was greater than 100 µM, the TGI (CAKI-1 renal) was greater than 100 µM and the TGI (LOX IMVI melanoma) was greater than 100 µM. The TGI (U251 CNS) was greater than 100 µM, the TGI (TK-10 renal) was greater than 100 µM and the TGI (MOLT-4 leukemia) was greater than 100 µM. It also gave a TGI (COLO 205 colon) greater than 100 µM, a TGI (OVCAR-4 ovarian) greater than 100 µM and a TGI (UACC-257 melanoma) greater than 100 µM. The TGI (RPMI-8226 leukemia) was greater than 100 µM, the TGI (HCT-116 colon) was greater than 100 µM and the TGI (KM12 colon) was greater than 100 µM. It also gave a TGI (DU-145 prostate) greater than 100 µM, a TGI (SF-539 CNS) greater than 100 µM and a TGI (RXF 393 renal) greater than 100 µM. For the same compound, the TGI (UO-31 renal) was greater than 100 µM, the TGI (SK-MEL-28 melanoma) was greater than 100 µM and the TGI (SF-295 CNS) was greater than 100 µM. The TGI (NCI-H226 lung) was greater than 100 µM, the TGI (HT29 colon) was greater than 100 µM and the TGI (M14 melanoma) was greater than 100 µM. It also gave a TGI (HOP-62 NSCLC) greater than 100 µM, a TGI (OVCAR-8 ovarian) greater than 100 µM and a TGI (MDA-MB-231 breast) greater than 100 µM. For the same compound, the TGI (T-47D breast) was greater than 100 µM, the TGI (MDA-N) was greater than 100 µM and the TGI (NCI-H23 lung) was greater than 100 µM. It also gave a TGI (NCI-H522 lung) greater than 100 µM and a TGI (SK-MEL-5 melanoma) greater than 100 µM.
